The values that follow come from PMC9180926, “Discovery of Novel 3-Hydroxyquinazoline-2,4(1H,3H)-Dione Derivatives: A Series of Metal Ion Chelators with Potent Anti-HCV Activities” (International Journal of Molecular Sciences, 2022).

As usually defined, the ΔTm is the shift of the melting midpoint relative to a reference. The inhibition is the drop in the measured response relative to a control, in per cent. One may read the EC50 as the concentration giving half of the maximal effect. The low end stands for higher potency in that assay, the high end for lower potency in that assay. As a reminder, the CC50 is the concentration that lowers cell viability or growth by half. A higher CC50 goes with lower toxicity to the cells.

Data set [1] addresses T1, C-terminal His-tagged NS5BΔ21 from HCV 1b subtype (Hepatitis C virus genotype 1b, UniProt Q913V3).
T1 construct: C-terminal His-tagged NS5BΔ21 from HCV 1b subtype; His tag (C); made in house
Briefly: Thermal shift assay with NS5B protein. In kind it is binding. The text has this:
The stability of a protein system is enhanced after binding to its specific ligand, leading to an increase in the melting temperature (Tm). Taking advantage of this feature, the thermal shift assay was extensively used to assess the binding of small molecules to the protein targets. The metal ion chelators were thought to exert an anti-HCV effect by chelating with Mg^2+ in the catalytic center of NS5B [34, 36, 38]. […] C-terminal His-tagged NS5BΔ21 from HCV 1b subtype was used as the protein in the experiment. Compared with the blank control (DMSO), the fluorescence–temperature curves of the NS5B system in the presence of 21e (Figure 3A) and 21k (Figure 3B) at 50 μM, 100 μM, and 200 μM all shifted to the right of the axis. The Tm values of 21e and 21k increased in a concentration-dependent manner, presenting higher values than that of the blank control (Tm = 63.5 °C) at all tested concentrations.
C-terminal His-tagged NS5BΔ21 from HCV 1b subtype was expressed from pET28a HCR6 plasmid in our lab and dissolved in a Tris-HCl buffer (20 mm, pH 7.2) containing 150 mm NaCl. Then, 1 μL of corresponding concentration (1 mm, 2 mm, or 4 mm) of the test compound in DMSO or 1 μL DMSO alone was added to each well of a 96-well PCR plate (Shanghai Sangon Biotech Co., Ltd., Shanghai, China). Subsequently, 19 μL of pre-prepared PBS solution containing 10 mm MgCl2, 10× SYPRO® orange protein gel stain (Sigma-Aldrich, St. Louis, MO, USA), and 5 μM NS5B protein was added to each well and mixed. The final concentration of DMSO in each well was 5%. The PCR plate was covered with a high-permeable film, incubated at room temperature for 10 min, and then placed on the Applied Biosystems^TM 7500 Real-Time PCR System (Thermo Fisher Scientific, Waltham, MA, USA). The temperature was increased to 90 °C gradually, and the change curve of fluorescence intensity versus system temperature was recorded.

Data set [2] concerns HCV 1b replicon cells (Huh-7.5.1). Description: Anti-HCV assay, HCV 1b replicon cells with luciferase reporter. Conditions: Hepatitis C virus, Huh-7.5.1, 72 h, inhibitory rate at 5 μM. In kind it is cell-based, hepatitis C virus (HCV) subtype 1b. (In antiviral work, replicon cells carry a viral genome segment that copies itself.)
Data set [3] has the same test system. The data set is described as above. In kind it is cell-based, hepatitis C virus (HCV) subtype 1b. The note with it: Hepatitis C virus, HCV 1b replicon cells.
A short description of data set [4]: Cytotoxicity assay (CCK-8) on replicon cells. Format: cell-based. The note with it: human, HCV 1b replicon cells (Huh-7.5.1); 50% cytotoxic concentration; CCK-8, HCV 1b replicon cells, 72 h.

T1 sequence (Q913V3 2420-2989, stated change not applied): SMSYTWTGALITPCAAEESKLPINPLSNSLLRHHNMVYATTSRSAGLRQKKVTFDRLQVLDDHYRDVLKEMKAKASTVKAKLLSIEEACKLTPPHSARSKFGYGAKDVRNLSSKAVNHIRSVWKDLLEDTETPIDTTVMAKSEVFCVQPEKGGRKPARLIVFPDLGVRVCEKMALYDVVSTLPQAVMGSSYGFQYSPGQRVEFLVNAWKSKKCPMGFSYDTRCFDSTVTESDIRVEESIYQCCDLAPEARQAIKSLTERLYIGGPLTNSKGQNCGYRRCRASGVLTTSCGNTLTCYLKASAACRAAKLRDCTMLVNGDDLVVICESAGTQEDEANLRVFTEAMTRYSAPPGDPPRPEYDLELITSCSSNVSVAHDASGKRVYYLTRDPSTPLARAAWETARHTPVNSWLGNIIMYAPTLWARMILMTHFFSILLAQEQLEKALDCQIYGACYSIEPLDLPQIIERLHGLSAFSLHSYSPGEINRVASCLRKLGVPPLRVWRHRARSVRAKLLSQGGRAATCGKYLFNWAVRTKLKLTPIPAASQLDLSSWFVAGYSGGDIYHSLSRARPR

With `O=c1[nH]c2cc(-c3ccccc3)ccc2c(=O)n1O` [21e, 3-Hydroxy-7-phenylquinazoline-2,4(1H,3H)-dione], in data set [1] (compound 50 μM, Tm of compound group minus Tm of blank control, mean ± SD, three experiments), the ΔTm at 50 µM came out at 0.6 ± 0.15 °C. In data set [1] (compound 100 μM, Tm of compound group minus Tm of blank control, mean ± SD, three experiments), the ΔTm at 100 µM stood at 0.85 ± 0.02 °C. For the same molecule, in data set [1] (compound 200 μM, Tm of compound group minus Tm of blank control, mean ± SD, three experiments), the “ΔTm 200 μM” value is 1.5 ± 0.01 °C. Besides, the “Tm of NS5B complexed with compound” value in data set [1] (in Figure 3, blank control Tm = 63.5 °C) was found to be 65.0 °C. In data set [1] (read-out: ΔTm 200 μM, compound 200 μM, Tm of compound group minus Tm of blank control, mean ± SD, three experiments), the ΔTm at 200 µM came to 1.6 °C. In data set [2], this molecule yielded an inhibition at 5 µM of 39.5%. The molecule further returned an EC50 in data set [3] (Huh-7.5.1, 50% effective concentration, mean ± SD) of 3.2 ± 0.04 µM. In data set [3] (Huh-7.5.1, 72 h, inhibitory rate at 10 μM, 72 h, read-out: HCV Inhibition 10 μM), the inhibition at 10 µM turned out to be 78.1%. For the same molecule, the midpoint of cytotoxicity in data set [4], the CC50 at 72 h, lay at 5.4 ± 0.6 µM.
